Laboratory results from ChEMBL document CHEMBL2380224, “Fragment-based ligand design of novel potent inhibitors of tankyrases” (J Med Chem, 2013).

Legend:
[1] = molecular target: T1, Poly [ADP-ribose] polymerase tankyrase-2 (Homo sapiens, UniProt Q9H2K2); assay: Inhibition of auto-PARsylation of GST-tagged TNKS2 PARP domain (947 to 1162) (unknown origin) expressed in Escherichia coli BL21(DE3) after 2 hrs by LC/MS analysis
T1 sequence (Q9H2K2 whole entry): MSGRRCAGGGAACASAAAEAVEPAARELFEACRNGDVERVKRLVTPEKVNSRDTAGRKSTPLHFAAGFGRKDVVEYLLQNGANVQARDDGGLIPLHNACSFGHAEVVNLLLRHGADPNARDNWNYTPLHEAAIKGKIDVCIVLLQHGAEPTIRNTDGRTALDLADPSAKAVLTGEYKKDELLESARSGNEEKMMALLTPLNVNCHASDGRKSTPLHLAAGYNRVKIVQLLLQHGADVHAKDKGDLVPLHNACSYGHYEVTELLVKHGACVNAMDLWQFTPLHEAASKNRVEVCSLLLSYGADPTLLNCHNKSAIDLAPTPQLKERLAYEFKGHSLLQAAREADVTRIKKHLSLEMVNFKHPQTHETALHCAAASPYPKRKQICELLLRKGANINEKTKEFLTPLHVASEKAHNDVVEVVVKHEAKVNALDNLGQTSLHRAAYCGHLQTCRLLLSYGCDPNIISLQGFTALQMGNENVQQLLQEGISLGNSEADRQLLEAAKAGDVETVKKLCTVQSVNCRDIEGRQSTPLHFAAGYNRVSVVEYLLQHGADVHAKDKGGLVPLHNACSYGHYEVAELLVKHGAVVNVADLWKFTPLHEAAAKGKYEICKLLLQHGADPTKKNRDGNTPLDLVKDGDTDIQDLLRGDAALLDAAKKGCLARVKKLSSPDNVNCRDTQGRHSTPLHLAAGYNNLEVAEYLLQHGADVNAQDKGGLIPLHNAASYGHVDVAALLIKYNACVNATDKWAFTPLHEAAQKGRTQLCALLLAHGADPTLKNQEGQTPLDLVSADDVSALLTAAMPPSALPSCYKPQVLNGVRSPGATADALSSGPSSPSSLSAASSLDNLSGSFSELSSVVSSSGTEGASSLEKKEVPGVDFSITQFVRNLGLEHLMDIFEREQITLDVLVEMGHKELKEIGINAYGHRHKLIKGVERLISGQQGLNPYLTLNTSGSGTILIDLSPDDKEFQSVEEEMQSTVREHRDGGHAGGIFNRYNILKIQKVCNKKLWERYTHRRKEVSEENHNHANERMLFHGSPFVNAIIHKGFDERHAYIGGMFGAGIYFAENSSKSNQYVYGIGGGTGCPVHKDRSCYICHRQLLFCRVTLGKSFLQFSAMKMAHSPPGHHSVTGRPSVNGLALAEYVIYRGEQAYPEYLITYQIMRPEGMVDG

[2] = molecular target: T2, Poly [ADP-ribose] polymerase tankyrase-1 (Homo sapiens, UniProt O95271); assay: Inhibition of TNKS1 (unknown origin)
T2 sequence (O95271 whole entry): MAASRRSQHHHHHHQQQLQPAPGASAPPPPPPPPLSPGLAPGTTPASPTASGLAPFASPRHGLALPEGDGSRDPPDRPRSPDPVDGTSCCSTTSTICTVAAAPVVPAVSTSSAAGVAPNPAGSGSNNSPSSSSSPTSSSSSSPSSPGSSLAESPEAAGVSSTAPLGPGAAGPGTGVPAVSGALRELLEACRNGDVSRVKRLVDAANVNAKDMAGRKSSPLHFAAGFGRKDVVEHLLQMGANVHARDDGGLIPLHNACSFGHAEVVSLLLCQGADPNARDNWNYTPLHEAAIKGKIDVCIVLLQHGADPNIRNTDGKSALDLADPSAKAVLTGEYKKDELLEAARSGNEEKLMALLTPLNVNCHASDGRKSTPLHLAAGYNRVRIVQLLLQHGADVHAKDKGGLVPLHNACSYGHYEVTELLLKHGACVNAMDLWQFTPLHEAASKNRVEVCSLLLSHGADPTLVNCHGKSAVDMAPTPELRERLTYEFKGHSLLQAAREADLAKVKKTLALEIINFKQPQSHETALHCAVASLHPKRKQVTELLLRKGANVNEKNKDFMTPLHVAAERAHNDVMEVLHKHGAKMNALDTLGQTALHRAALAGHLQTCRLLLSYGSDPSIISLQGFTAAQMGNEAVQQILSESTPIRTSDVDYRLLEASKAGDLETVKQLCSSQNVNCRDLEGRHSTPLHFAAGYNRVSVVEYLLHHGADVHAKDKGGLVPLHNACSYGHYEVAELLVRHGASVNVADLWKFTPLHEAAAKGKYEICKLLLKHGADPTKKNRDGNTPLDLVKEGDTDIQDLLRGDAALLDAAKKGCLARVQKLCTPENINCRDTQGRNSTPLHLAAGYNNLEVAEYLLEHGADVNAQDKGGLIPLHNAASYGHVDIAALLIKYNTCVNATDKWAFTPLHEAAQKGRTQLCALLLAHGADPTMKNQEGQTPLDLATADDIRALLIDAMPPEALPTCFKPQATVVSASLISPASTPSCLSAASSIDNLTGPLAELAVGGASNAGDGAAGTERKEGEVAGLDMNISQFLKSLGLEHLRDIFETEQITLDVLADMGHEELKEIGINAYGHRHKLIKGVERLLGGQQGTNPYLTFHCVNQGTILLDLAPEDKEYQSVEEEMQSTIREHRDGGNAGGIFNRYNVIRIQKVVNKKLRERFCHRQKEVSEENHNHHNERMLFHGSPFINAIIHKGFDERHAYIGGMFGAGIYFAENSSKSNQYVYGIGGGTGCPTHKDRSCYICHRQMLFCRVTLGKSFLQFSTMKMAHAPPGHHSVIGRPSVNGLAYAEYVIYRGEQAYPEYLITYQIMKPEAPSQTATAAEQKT

[3] = molecular target: T3, Protein mono-ADP-ribosyltransferase PARP11 (Homo sapiens) (UniProt Q9NR21); assay: Inhibition of PARP11 (unknown origin) at 10 uM relative to control
T3 sequence (whole entry): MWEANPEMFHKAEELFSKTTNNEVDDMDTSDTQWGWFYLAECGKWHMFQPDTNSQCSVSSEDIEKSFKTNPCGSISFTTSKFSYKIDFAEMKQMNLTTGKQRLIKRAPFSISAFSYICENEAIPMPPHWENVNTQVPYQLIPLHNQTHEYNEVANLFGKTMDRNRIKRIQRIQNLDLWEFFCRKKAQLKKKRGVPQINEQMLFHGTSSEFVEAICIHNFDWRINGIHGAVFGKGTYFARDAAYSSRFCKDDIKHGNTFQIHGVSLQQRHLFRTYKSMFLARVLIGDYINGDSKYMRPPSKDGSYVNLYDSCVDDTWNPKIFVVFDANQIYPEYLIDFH

Homo sapiens [4] = species: Homo sapiens; assay: Selectivity ratio of IC50 for TNKS1 (unknown origin) to IC50 for TNKS2 PARP domain (947 to 1162) (unknown origin)
Homo sapiens [5] = species: Homo sapiens; assay: Selectivity ratio of IC50 for PARP3 (unknown origin) to IC50 for TNKS2 PARP domain (947 to 1162) (unknown origin)

IC50 [1]: 52 nM | IC50 [2]: 860 nM | inhibition [3]: 23% | Ratio IC50 (Homo sapiens [4]): 16.5 | Ratio IC50 (Homo sapiens [5]): > 100
SMILES: Cc1cc(=O)[nH]c2cc(-c3ccccc3F)ccc12
